Results reported in US9650372B2, “Molecules having pesticidal utility, and intermediates, compositions, and processes, related thereto” (priority 2015, dated 2017).

Assays:
[1] = system: Cabbage Looper (Trichoplusia ni, TRIPNI); assay: Bioassay on Cabbage Looper (CL), 128-well diet tray assay; format: in vivo; settings: 168 h, 50 μg/cm^2 on artificial diet, second instar larvae, 25° C., five to seven days, average of eight wells, read-out: CL % Control (or Mortality) rating
Method: (§1) Certain molecules disclosed in this document were tested against BAW and CL using procedures described in the following examples. In the reporting of the results, the “BAW & CL Rating Table” was used (See Table Section).
Bioassays on CL were conducted using a 128-well diet tray assay. One to five second instar CL larvae were placed in each well (3 mL) of the diet tray that had been previously filled with 1 mL of artificial diet to which 50 μg/cm^2 of the test molecule (dissolved in 50 μL of 90:10 acetone-water mixture) had been applied (to each of eight wells) and then allowed to dry. Trays were covered with a clear self-adhesive cover, vented to allow gas exchange, and held at 25° C., 14:10 light-dark for five to seven days. Percent mortality was recorded for the larvae in each well; activity in the eight wells was then averaged. The results are indicated in the table entitled “Table ABC: Biological Results” (See Table Section).

[2] = system: Beet Armyworm (Spodoptera exigua, LAPHEG); assay: Bioassay on Beet Armyworm (BAW), 128-well diet tray assay; format: in vivo; settings: 168 h, 50 μg/cm^2 on artificial diet, second instar larvae, 25° C., five to seven days, average of eight wells, read-out: BAW % Control (or Mortality) rating
Method: as §1
Bioassays on BAW were conducted using a 128-well diet tray assay. One to five second instar BAW larvae were placed in each well (3 mL) of the diet tray that had been previously filled with 1 mL of artificial diet to which 50 μg/cm^2 of the test molecule (dissolved in 50 μL of 90:10 acetone-water mixture) had been applied (to each of eight wells) and then allowed to dry. Trays were covered with a clear self-adhesive cover, vented to allow gas exchange, and held at 25° C., 14:10 light-dark for five to seven days. Percent mortality was recorded for the larvae in each well; activity in the eight wells was then averaged. The results are indicated in the table entitled “Table ABC: Biological Results” (See Table Section).

Compound | mortality at 50 µg/cm2 [1] [%] | mortality at 50 µg/cm2 [2] [%]
CC(C)c1ccccc1N1C(=O)CS/C1=N\C(=O)Nc1ccc(-c2ncn(CCC(F)(F)C(F)(F)C(F)(F)F)n2)cc1 [Molecule F5, (Z)-1-(4-(1-(3,3,4,4,5,5,5-heptafluoropentyl)-1H-1,2,4-triazol-3-yl)phenyl)-3-(3-(2-isopropylphenyl)-4-oxothiazolidin-2-ylidene)urea] | 50 to 100 | 50 to 100
Cc1ccc(C(C)C)c(N2C(=O)CS/C2=N\C(=O)Nc2ccc(-c3ncn(CCc4ccc(OC(F)(F)F)cc4)n3)cc2)c1 [Molecule F1, (Z)-1-(3-(2-isopropyl-5-methylphenyl)-4-oxothiazolidin-2-ylidene)-3-(4-(1-(4-(trifluoromethoxy)phenethyl)-1H-1,2,4-triazol-3-yl)phenyl)urea] | 50 to 100 | 50 to 100
CC(C)c1ccccc1N1C(=O)CS/C1=N\C(=O)Nc1ccc(-c2ncn(CCCCC(F)(F)F)n2)cc1 [Molecule F4, (Z)-1-(3-(2-Isopropylphenyl)-4-oxothiazolidin-2-ylidene)-3-(4-(1-(5,5,5-trifluoropentyl)-1H-1,2,4-triazol-3-yl)phenyl)urea] | 50 to 100 | 50 to 100
CC(C)c1ccccc1N1C(=O)CS/C1=N\C(=O)Nc1ccc(-c2ncn(Cc3ccc(C(F)(F)F)cc3)n2)cc1 [Molecule F3, (Z)-1-(3-(2-Isopropylphenyl)-4-oxothiazolidin-2-ylidene)-3-(4-(1-(4-(trifluoromethyl)benzyl)-1H-1,2,4-triazol-3-yl)phenyl)urea] | 50 to 100 | 0 to 50
CC(C)c1ccccc1N1C(=O)CS/C1=N\C(=O)Nc1ccc(-c2ncn(CCCC(F)(F)C(F)(F)F)n2)cc1 [Molecule F2, (Z)-1-(3-(2-Isopropylphenyl)-4-oxothiazolidin-2-ylidene)-3-(4-(1-(4,4,5,5,5-pentafluoropentyl)-1H-1,2,4-triazol-3-yl)phenyl)urea] | 50 to 100 | 50 to 100
